This note sets out measurements from the supplement of paper PMC8988213.

For assay [1], the system named is ID211 patient-derived PDAC 2D line (post-FOLFIRINOX). The experiment in a line: normalised area under dose-response curve (viability relative to DMSO, 7 doses up to 10 µM) (fraction (AUC)); higher = less sensitive (more viability retained). Conditions: 72 h; top dose: 10 µM. In outline: (§1)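 A robot plated 1,500–3,000 cells/well of patient-derived 2D PDAC cells, outgrown from organoids, into 96-well plates, followed by overnight incubation at 37°C, 5% CO2. The cells were exposed for 72 h to SelleckChem library compounds at seven 3-fold-diluted concentrations up to 10 µM, and CellTiter-Glo luminescence was read after 10 min. Area under the dose-response curve came from the GRmetrics R package, with viability normalised to control wells.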

The subject of assay [2] is ID188 patient-derived PDAC 2D line (pre-FOLFIRINOX). Described as above. Conditions: 72 h; top dose: 10 µM. In a few lines:
as §1

Structures are written as SMILES. Where a name gives a salt, the structure may show the parent alone.

`NC(=O)Nc1cc(-c2cccc(F)c2)sc1C(=O)N[C@H]1CCCNC1` [AZD7762]: the “normalised area under dose-response curve” value (shortened to “normalised area”) in assay [1] worked out at 0.507; in assay [2] it was 0.558.
As to `C=CC(=O)Nc1cccc(Oc2nc(Nc3ccc(N4CCN(C)CC4)cc3)nc3ccsc23)c1`, the results for the “normalised area” value in assay [1] and in assay [2] were 0.75 and 0.921, respectively.
On the same counts, the results for `Cn1cnc2c(F)c(Nc3ccc(Br)cc3Cl)c(C(=O)NOCCO)cc21` [Selumetinib (AZD6244)] are 0.492 and 0.676.
Turning to `O=C(O)CC[C@H]1CC[C@@](c2cc(F)ccc2F)(S(=O)(=O)c2ccc(Cl)cc2)CC1` [MK-0752], the “normalised area” value in assay [1] amounted to 0.83; in assay [2], 0.888.
Take `Cc1sc2c(c1C)C(c1ccc(Cl)cc1)=N[C@@H](CC(N)=O)c1nnc(C)n1-2` [CPI-203]: the “normalised area” value is 0.597 in assay [1] and 0.877 in assay [2].
On the same counts, the results for `CCS(=O)(=O)N1CCC([C@@H](C)n2c(C)c(C(=O)NCc3c(OC)cc(C)[nH]c3=O)c3ccccc32)CC1` [CPI-169] are 0.874 and 0.924.
On to `CN1CCN(C(=O)/C=C/c2ccc([N+](=O)[O-])o2)CC1`, for which the figures for the “normalised area” value in assay [1] and in assay [2] were 0.937 and 0.954, respectively.
Consider `CC(C)(C)Cn1c(N)nc2ccc(-c3[nH]c(C(C)(C)C)nc3-c3ccc(F)cc3)nc21`, for which the “normalised area” value in assay [1] stood at 0.862; in assay [2], 0.992.
`COc1cc([C@@H]2c3cc4c(cc3[C@@H](O[C@@H]3O[C@@H]5CO[C@@H](C)O[C@H]5[C@H](O)[C@H]3O)[C@H]3COC(=O)[C@H]23)OCO4)cc(OC)c1O` [Etoposide]: the “normalised area” value came to 0.853 in assay [1] and 0.946 in assay [2].
On the same counts, the results for `O=C(Oc1cc(S(=O)(=O)c2ccccc2)ccc1[N+](=O)[O-])c1ccc(Cl)cc1` are 0.869 and 0.959.
Take `O=C1C(=O)N(Cc2ccc(Cl)c(Cl)c2)c2ccccc21` [Apoptosis Activator 2]: the “normalised area” value is 0.969 in assay [1] and 0.952 in assay [2].
`Cc1c(CN2CCC(Nc3ncnc4sc(CC(F)(F)F)cc34)CC2)ccc2[nH]c(C#N)cc12` [MI-463]: the “normalised area” value is 0.825 in assay [1] and 0.713 in assay [2].
On the same counts, the results for `CNC(=O)c1cc(Oc2ccc(NC(=O)Nc3cc(C(C)(C)C)nn3-c3ccc4ncccc4c3)c(F)c2)ccn1` [Rebastinib (DCC-2036)] are 0.885 and 0.853.
Take `O=C(O)c1ccc(N2C(=O)/C(=C\c3ccc(-c4ccc([N+](=O)[O-])cc4)o3)C=C2c2ccccc2)cc1` [4E1RCat]: the “normalised area” value in assay [1] was 0.895; in assay [2], 0.946.
On the same counts, the results for `N#Cc1ccc(-c2csc(NN=C3CCCC3)n2)cc1` [Remodelin] are 0.854 and 0.941.
On the same counts, the results for `O=c1cc(N2CCOCC2)oc2c(-c3ccc4c(c3)OCCO4)csc12` [SF2523] are 0.768 and 0.968.
On the same counts, the results for `O=C(c1cncc(Br)c1)N1CCC(N2CCCC2)CC1` [UNC669] are 0.946 and 0.922.
Regarding `O=C(Nc1cccc(C(F)(F)F)c1)Nc1cc(S(=O)(=O)NC2CC2)ccc1-c1ccsc1` [AGI-6780], the entries for the “normalised area” value in assay [1] and in assay [2] were 0.842 and 0.906, respectively.
On to `Cc1ccc2nc(CN(CCN(Cc3nc4ccc(C)cc4[nH]3)Cc3nc4ccc(C)cc4[nH]3)Cc3nc4ccc(C)cc4[nH]3)[nH]c2c1`, for which the “normalised area” value in assay [1] stood at 0.676; in assay [2], 1.03.
With `Cc1cc(O)c(-c2ccc([C@@H](C)CN)cc2)c2c1[nH]c(=O)c1sccc12` [OTS514 hydrochloride], the figures for the “normalised area” value in assay [1] and in assay [2] were 0.443 and 0.368, respectively.
For the compound `COc1ccc2c(c1)c(CC(=O)N1CCOCC1)c(C)n2C(=O)c1ccc(Cl)cc1` [BML-190], the “normalised area” value in assay [1] was 1.01; in assay [2] it was 0.958.
Turning to `CCNC(=O)c1noc(-c2cc(C(C)C)c(O)cc2O)c1-c1ccc(CN2CCOCC2)cc1` [Luminespib (AUY-922, NVP-AUY922)], the “normalised area” value in assay [1] was 0.345; in assay [2] it was 0.485.
With `C[C@H]1CNC(=O)c2cnn3ccc(nc23)N[C@H](C)c2cc(F)ccc2O1` [TPX-0005], the results for the “normalised area” value in assay [1] and in assay [2] were 0.728 and 0.777, respectively.
For `COc1cc2c(cc1OCCCN1CCCC1)N=C(N)C21CCC1` [A-366], the “normalised area” value in assay [1] amounted to 0.895; in assay [2] it was 0.983.
In the case of `CCC[C@H](NC(=O)/C(C#N)=C/c1cccc(Br)n1)c1ccccc1` [Degrasyn (WP1130)], the “normalised area” value in assay [1] turned out to be 0.82; in assay [2], 0.869.
As for `O=C(Nc1cc(Cl)cc2c1[nH]c1cnccc12)c1cccnc1` [PS-1145], the “normalised area” value in assay [1] was 0.839; in assay [2], 0.923.
With `CNC(=O)c1cc(Oc2ccc3nc(N[C@@H]4CCCC[C@H]4O)sc3c2)ccn1` [BLZ945], the “normalised area” value in assay [1] amounted to 0.914; in assay [2], 0.905.
On the same counts, the results for `COCC1(CO)C(=O)C2CCN1CC2` (configuration not stated) [APR-246 (PRIMA-1MET)] are 0.86 and 0.947.
Take `CN[C@@H](C)C(=O)N[C@H](C(=O)N1CCC[C@H]1C(=O)Nc1snnc1-c1ccccc1)C1CCCCC1` [GDC-0152]: the “normalised area” value in assay [1] came out at 0.849; in assay [2] it was 0.667.
As for `CNC(=O)c1ccc(Nc2ncc(C(F)(F)F)c(NCc3nccnc3N(C)S(C)(=O)=O)n2)cc1`, the “normalised area” value was 0.761 in assay [1] and 0.897 in assay [2].
Regarding `CNCc1ccc(-c2cc(-c3nc(-c4ccc(S(=O)(=O)C(C)C)cc4)cnc3N)on2)cc1` [VE-822], the “normalised area” value in assay [1] is 0.888; in assay [2], 0.693.
With `Nc1cc(F)ccc1NC(=O)/C=C/c1cnn(C/C=C/c2ccccc2)c1` [RGFP966], the “normalised area” value amounted to 0.779 in assay [1] and 0.911 in assay [2].
As to `CN(NC(=O)CC(=O)NN(C)C(=S)c1ccccc1)C(=S)c1ccccc1` [Elesclomol (STA-4783)], the “normalised area” value was determined as 0.0189 in assay [1] and 0.179 in assay [2].
On the same counts, the results for `O=c1cc(N2CCOCC2)oc2c(-c3cccc4c3sc3ccccc34)cccc12` are 0.878 and 0.991.
For the compound `CN1C(=O)[C@@]23C[C@]4([C@]56C[C@@]78SS[C@@](CO)(C(=O)N7[C@H]5Nc5ccccc56)N(C)C8=O)c5ccccc5N[C@@H]4N2C(=O)[C@]1(CO)SS3` [Chaetocin], the “normalised area” value came out at 0.0212 in assay [1] and 0.192 in assay [2].
As to `CC(C)c1c(-c2ccccc2)nc2c(C#N)c[nH]n2c1=O` [CPI-455 HCl], the “normalised area” value was determined as 0.898 in assay [1] and 0.972 in assay [2].
In the case of `COc1ccc(CCc2nc3cc(-c4c(C)noc4C)ccc3n2C[C@H](C)N2CCOCC2)cc1Cl` [SGC-CBP30], the results for the “normalised area” value in assay [1] and in assay [2] were 0.951 and 0.984, respectively.
As to `CCC(=O)Nc1cccc(Oc2nc(Nc3ccc(N4CCN(C)CC4)cc3OC)ncc2Cl)c1` [WZ4003], the “normalised area” value in assay [1] was 0.896; in assay [2], 0.965.
On to `C#Cc1cccc(Nc2ncnc3cc(OCCOC)c(OCCOC)cc23)c1` [Erlotinib], for which the “normalised area” value was 0.7 in assay [1] and 0.902 in assay [2].
Take `COc1cc2c(cc1OC)[C@@H]1C(=O)c3ccc4c(c3O[C@@H]1CO2)C=CC(C)(C)O4` [Deguelin]: the “normalised area” value turned out to be 0.75 in assay [1] and 0.886 in assay [2].
On to `O=C(O)c1ccc(O)c2ncccc12` [IOX1], for which the “normalised area” value came out at 0.871 in assay [1] and 0.95 in assay [2].
With `O=C(c1cc(Cc2n[nH]c(=O)c3ccccc23)ccc1F)N1CCN(C(=O)C2CC2)CC1`, the “normalised area” value came out at 0.865 in assay [1] and 0.917 in assay [2].
On the same counts, the results for `Cn1nccc1Nc1nccc(-c2ccn([C@H](CO)c3ccc(Cl)c(F)c3)c(=O)c2)n1` [GDC-0994] are 0.677 and 0.824.
For the compound `CC(C)n1c(/C=C/C(O)CC(O)CC(=O)O)c(-c2ccc(F)cc2)c2ccccc21` (configuration not stated) [Fluvastatin Sodium], the “normalised area” value in assay [1] came out at 0.807; in assay [2], 0.87.
On the same counts, the results for `CC1=C(C(=O)OC2CCCCC2)C(c2ccc([N+](=O)[O-])cc2)C2=C(CC(C)(C)CC2=O)N1` (configuration not stated) [FLI-06] are 0.792 and 0.936.
Take `O=C(NCCCNc1nc(Nc2cccc(NC(=O)N3CCCC3)c2)ncc1I)c1cccs1` [BX-795]: the “normalised area” value was found to be 0.883 in assay [1] and 0.885 in assay [2].
